System: mice with high fat diet-induced obesity (HFDIO)
Experiment: HFDIO Experiment 2: 22 weeks of diet, IL-22 for the last 30 days
Format: in vivo, C57BL/6 male mice
Details: for Body weight (% original) / Fasting blood glucose / Fasting serum insulin concentration / Fasting serum proinsulin concentration: HFDIO Experiment 2, 22 weeks on HFD
Description: All mice were housed in sterilized, filter-topped cages in a conventional clean facility. Six to eight week old C57BL/6 male mice were fed ad libitum on a high fat diet containing 46% of available energy as saturated fat, 34% carbohydrate, 20% protein (Speciality feeds, SF04-027). Or on normal chow containing less than 10% saturated fat (GOLDMIX, 126575). Cages of mice were randomly allocated to the experimental groups by random draw. Investigators were not blinded to treatment by there were no subjective assessments made.
Total insulin and proinsulin were measured in supernatant from islet cultures or in serum from mice using commercially obtained ELISA kits from MILLIPORE and MERCODIA, respectively. The molar insulin concentration was determined by subtracting the molar proinsulin concentration from molar total insulin, and then the serum proinsulin:insulin ratio was calculated.
From 18-22 weeks of diet, mice were treated (for 30 days) with 20 or 100 ng/g i.p. recombinant murine IL-22 twice weekly (R&D SYSTEMS) or 0.1 mg/mouse irrelevant isotype control antibody, sacrificed and sampled.
Fasted i.p. glucose tolerance tests (2 g/kg glucose) and insulin tolerance tests (0.25 U/kg insulin; Humalog, Lilly) were performed at the times indicated in the Figure Legends. […]

## IL-22: interleukin-22; recombinant murine IL-22 (R&D SYSTEMS) in the mouse experiments
100 ng/g
  decrease of serum proinsulin: 97%
  islet ER stress (Xbp1 splicing): Xbp1 splicing indistinguishable from normal chow islets
  Body weight (% original): 189 ± 17 % original
  Fasting blood glucose: 10.6 ± 1.3 mmol/L
  Fasting serum insulin concentration: 0.5 ± 0.3 ng/mL
  Fasting serum proinsulin concentration: 4.7 ± 1.8 pmol/L
20 or 100 ng/g, last 30 days of 22-week HFD
  body weight during treatment: progressively decreased
20 ng/g
  Body weight (% original): 188 ± 13 % original
  Fasting blood glucose: 11.3 ± 0.5 mmol/L
  Fasting serum insulin concentration: 0.7 ± 0.4 ng/mL
  Fasting serum proinsulin concentration: 14.1 ± 2.9 pmol/L
Both doses (20 and 100 ng/g)
  time until random fed blood glucose decreased to levels of normal chow fed mice: ≤ 7 days
Day 16 of therapy
  insulin resistance in ITT: no or modest improvement in insulin resistance
Day 25
  serum total insulin during IPGTT: complete suppression of fasting hyperinsulinemia and normalization of GSIS
Day 25 of therapy
  glycemic control in IPGTT: glycemic control indistinguishable from control non-obese mice
Day 29, both doses
  insulin resistance in ITT: insulin resistance had decreased
End of treatment
  serum proinsulin:insulin ratio: normalization of the serum proinsulin:insulin ratio
Islets from HFD mice treated in vivo, glucose/GLP-1
  proinsulin secretion by islets ex vivo: reduced in a dose-dependent manner
Islets from HFDIO mice treated in vivo
  islet expression of anti-oxidant genes and Nos2: further increased expression of anti-oxidant genes and suppressed Nos2
Islets from obese mice treated for 30 days
  insulin secretion in response to glucose by islets ex vivo: correction of insulin hyper-secretion in response to glucose
Up to 100 μg/kg for up to 30 days
  pathology in skin, intestine or liver: no pathology was observed in the skin, intestine or liver
